# From ChEMBL document CHEMBL3091304 (Bioorg Med Chem, 2013)
# Calls of active or inactive are those of the source. The calls are words filed in the database; no cut-off is given here.
# Columns and labels:
# [1] = target: Kappa-type opioid receptor (Cricetulus griseus) (UniProt G3HZR5); experiment: Displacement of [3H]U-69593 from kappa opioid receptor in CHO cells at 1 uM after 120 mins relative to control; format: cell-based
# [2] = target: Kappa-type opioid receptor (Cricetulus griseus) (UniProt G3HZR5); experiment: Displacement of [3H]U-69593 from kappa opioid receptor in CHO cells at 10 uM after 120 mins relative to control; format: cell-based
# Rattus norvegicus [3] = species on record: Rattus norvegicus; experiment: Inhibition of UDP-glucuronosyltransferase in Sprague-Dawley rat liver microsomes assessed as morphine conversion to M3G up to 50 uM after 30 mins by HPLC analysis relative to control
# [4] = target: Delta-type opioid receptor (Cricetulus griseus) (UniProt G3H1Y1); experiment: Displacement of [3H]DADLE from delta opioid receptor in CHO cells at 1 uM after 120 mins relative to control; format: cell-based
# [5] = target: Mu-type opioid receptor (Homo sapiens) (UniProt P35372); settings: HEK293, at 1 µM
# Description: Displacement of [3H]diprenorphine from mu opioid receptor in HEK293 cells at 1 uM after 120 mins relative to control
# Hepatocyte [6] = experiment: Inhibition of UDP-glucuronosyltransferase in Sprague-Dawley rat hepatocytes assessed as morphine conversion to M3G at 5 to 10 uM incubated for 72 hrs prior to substrate addition measured after 2 hrs by HPLC analysis; format: cell-based
# Rattus norvegicus [7] = species on record: Rattus norvegicus; experiment: Inhibition of UDP-glucuronosyltransferase in Sprague-Dawley rat liver microsomes assessed as morphine conversion to M6G after 30 mins by HPLC analysis
# [8] = target: Mu-type opioid receptor (Homo sapiens) (UniProt P35372); settings: HEK293, at 10 µM
# Description: Displacement of [3H]diprenorphine from mu opioid receptor in HEK293 cells at 10 uM after 120 mins relative to control
# [9] = target: Delta-type opioid receptor (Cricetulus griseus) (UniProt G3H1Y1); experiment: Displacement of [3H]DADLE from delta opioid receptor in CHO cells at 10 uM after 120 mins relative to control; format: cell-based
# Rattus norvegicus [10] = species on record: Rattus norvegicus; experiment: Activity at UDP-glucuronosyltransferase in Sprague-Dawley rat liver microsomes assessed as morphine conversion to M3G at 5 uM by Michaelis-Menten plot analysis
# [11] = Clearance in Sprague-Dawley rat liver microsomes at 50 uM; format: ADME; settings: read-out: CLH
# Hepatocyte [12] = experiment: Inhibition of UDP-glucuronosyltransferase in Sprague-Dawley rat hepatocytes assessed as morphine conversion to M3G at 5 to 40 uM incubated for 72 hrs prior to substrate addition measured after 2 hrs by HPLC analysis; format: cell-based
# Rattus norvegicus [13] = species on record: Rattus norvegicus; experiment: Activity at UDP-glucuronosyltransferase in Sprague-Dawley rat liver microsomes assessed as morphine conversion to M3G at 50 uM by Michaelis-Menten plot analysis
# Rattus norvegicus [14] = species on record: Rattus norvegicus; experiment: Activity at UDP-glucuronosyltransferase in Sprague-Dawley rat liver microsomes assessed as morphine conversion to M3G at 2.5 uM by Michaelis-Menten plot analysis
# [15] = Clearance in Sprague-Dawley rat liver microsomes at 5 uM; format: ADME; settings: read-out: CLH
# [16] = Clearance in Sprague-Dawley rat liver microsomes at 1 uM; format: ADME; settings: read-out: CLH
# Rattus norvegicus [17] = species on record: Rattus norvegicus; experiment: Activity at UDP-glucuronosyltransferase in Sprague-Dawley rat liver microsomes assessed as morphine conversion to M3G at 10 uM by Michaelis-Menten plot analysis
# [18] = Clearance in Sprague-Dawley rat liver microsomes at 2.5 uM; format: ADME; settings: read-out: CLH
# Rattus norvegicus [19] = species on record: Rattus norvegicus; experiment: (§1) Inhibition of UDP-glucuronosyltransferase in Sprague-Dawley rat liver microsomes assessed as morphine conversion to M3G after 30 mins by HPLC analysis
# [20] = as §1
# Rattus norvegicus [21] = species on record: Rattus norvegicus; experiment: Activity at UDP-glucuronosyltransferase in Sprague-Dawley rat liver microsomes assessed as morphine conversion to M3G at 1 uM by Michaelis-Menten plot analysis
# [22] = Clearance in Sprague-Dawley rat liver microsomes at 10 uM; format: ADME; settings: read-out: CLH
# Rattus norvegicus [23] = species on record: Rattus norvegicus; experiment: Competitive inhibition of UDP-glucuronosyltransferase in Sprague-Dawley rat liver microsomes assessed as morphine conversion to M3G up to 5 uM by Lineweaver-Burk plot analysis
# [24] = Inhibition of UDP-glucuronosyltransferase in Sprague-Dawley rat hepatocytes assessed as morphine conversion to M3G incubated for 72 hrs prior to substrate addition measured after 2 hrs by HPLC analysis; format: cell-based; settings: Hepatocyte
# Sequence of Mu-type opioid receptor (Homo sapiens) (P35372 whole entry): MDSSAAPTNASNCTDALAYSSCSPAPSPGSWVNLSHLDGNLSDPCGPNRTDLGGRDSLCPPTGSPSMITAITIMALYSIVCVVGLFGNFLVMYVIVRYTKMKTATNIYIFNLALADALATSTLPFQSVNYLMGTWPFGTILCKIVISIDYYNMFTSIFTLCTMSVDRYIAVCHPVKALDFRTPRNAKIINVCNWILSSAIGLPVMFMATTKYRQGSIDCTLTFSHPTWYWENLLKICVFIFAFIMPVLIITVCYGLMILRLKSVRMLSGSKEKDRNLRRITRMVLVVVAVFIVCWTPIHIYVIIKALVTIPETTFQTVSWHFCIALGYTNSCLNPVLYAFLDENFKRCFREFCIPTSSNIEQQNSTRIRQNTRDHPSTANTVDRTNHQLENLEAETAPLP
# Sequence of Kappa-type opioid receptor (Cricetulus griseus) (G3HZR5 as listed by the source): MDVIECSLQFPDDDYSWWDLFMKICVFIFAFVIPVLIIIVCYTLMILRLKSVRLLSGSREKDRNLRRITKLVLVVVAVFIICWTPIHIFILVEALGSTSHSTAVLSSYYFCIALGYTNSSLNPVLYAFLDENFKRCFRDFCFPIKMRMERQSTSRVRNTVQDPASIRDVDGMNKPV
# Sequence of Delta-type opioid receptor (Cricetulus griseus) (G3H1Y1 as listed by the source): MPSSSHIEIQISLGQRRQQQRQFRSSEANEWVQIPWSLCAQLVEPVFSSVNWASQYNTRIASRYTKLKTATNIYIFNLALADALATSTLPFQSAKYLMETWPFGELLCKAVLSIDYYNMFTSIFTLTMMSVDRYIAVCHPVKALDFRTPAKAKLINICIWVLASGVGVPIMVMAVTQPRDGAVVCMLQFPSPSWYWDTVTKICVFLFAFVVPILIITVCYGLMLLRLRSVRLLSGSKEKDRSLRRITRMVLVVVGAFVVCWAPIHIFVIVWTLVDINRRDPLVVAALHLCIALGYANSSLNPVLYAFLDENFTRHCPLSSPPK
compound,measurement,setting,value
COc1ccc2c3c1O[C@H]1[C@@H](O)CC[C@H]4[C@@H](C2)N(C)CC[C@@]341,inhibition,[1],4%
same,inhibition,[2],51%
same,inhibition,Rattus norvegicus [3],40%
same,inhibition,[4],7%
same,inhibition,[5],17%
same,inhibition,Hepatocyte [6],inactive
same,inhibition,Rattus norvegicus [7],inactive
same,inhibition,[8],40%
same,inhibition,[9],24%
COc1ccc2c3c1O[C@H]1[C@@H](OC(=O)C(C)(C)C)C=C[C@H]4[C@@H](C2)N(C)CC[C@@]341,Km,Rattus norvegicus [10],0.36 µM
same,Vmax,Rattus norvegicus [10],4.53 nmol/min/mg
same,microsomal CLint at 50 µM,[11],6.54 µL/min/mg
same,inhibition,Hepatocyte [12],Active
same,Km,Rattus norvegicus [13],0.62 µM
same,Vmax,Rattus norvegicus [13],3.95 nmol/min/mg
same,inhibition,[1],6%
same,Km,Rattus norvegicus [14],0.22 µM
same,Vmax,Rattus norvegicus [14],6.28 nmol/min/mg
same,inhibition,[2],42%
same,microsomal CLint at 5 µM,[15],12.7 µL/min/mg
same,microsomal CLint at 1 µM,[16],52.7 µL/min/mg
same,inhibition,[4],57%
same,inhibition,[5],20%
same,inhibition,Rattus norvegicus [7],inactive
same,inhibition,[8],38%
same,Km,Rattus norvegicus [17],0.72 µM
same,Vmax,Rattus norvegicus [17],4.63 nmol/min/mg
same,microsomal CLint at 2.5 µM,[18],29.1 µL/min/mg
same,inhibition,Rattus norvegicus [19],Dose-dependent effect
same,IC50,[20],2.27 µM
same,Ki,[20],2.56 µM
same,Km,Rattus norvegicus [21],0.13 µM
same,Vmax,Rattus norvegicus [21],7.03 nmol/min/mg
same,inhibition,[9],90%
same,microsomal CLint at 10 µM,[22],6.88 µL/min/mg
COc1ccc2c3c1O[C@H]1[C@@H](O)C=C[C@H]4[C@@H](C2)N(C)CC[C@@]341 [CODEINE],Km,Rattus norvegicus [10],0.43 µM
same,Vmax,Rattus norvegicus [10],8.04 nmol/min/mg
same,microsomal CLint at 50 µM,[11],8.35 µL/min/mg
same,Km,Rattus norvegicus [13],0.48 µM
same,Vmax,Rattus norvegicus [13],4.06 nmol/min/mg
same,Km,Rattus norvegicus [14],0.41 µM
same,Vmax,Rattus norvegicus [14],12.4 nmol/min/mg
same,microsomal CLint at 5 µM,[15],18.6 µL/min/mg
same,microsomal CLint at 1 µM,[16],48 µL/min/mg
same,inhibition,Rattus norvegicus [7],inactive
same,inhibition,Rattus norvegicus [23],inactive
same,Km,Rattus norvegicus [17],0.37 µM
same,Vmax,Rattus norvegicus [17],4.41 nmol/min/mg
same,IC50,[24],20.9 µM
same,microsomal CLint at 2.5 µM,[18],31.1 µL/min/mg
same,inhibition,Rattus norvegicus [19],Dose-dependent effect
same,IC50,[20],4.32 µM
same,Ki,[20],6.9 µM
same,Km,Rattus norvegicus [21],0.26 µM
same,Vmax,Rattus norvegicus [21],12.5 nmol/min/mg
same,microsomal CLint at 10 µM,[22],11.9 µL/min/mg
COc1ccc2c3c1O[C@H]1[C@@H](OC(C)=O)CC[C@H]4[C@@H](C2)N(C)CC[C@@]341,inhibition,[1],3%
same,inhibition,[2],13%
same,inhibition,Rattus norvegicus [3],Active
same,inhibition,[4],-10%
same,inhibition,[5],-2%
same,inhibition,Hepatocyte [6],inactive
same,inhibition,Rattus norvegicus [7],inactive
same,inhibition,[8],5%
CN1CC[C@]23c4c5ccc(O)c4O[C@H]2[C@@H](O)C=C[C@H]3[C@H]1C5,inhibition,[1],95%
same,inhibition,[2],100%
same,inhibition,[4],72%
same,inhibition,[9],95%
CCCCCCCCCCCC(=O)O[C@H]1C=C[C@H]2[C@H]3Cc4ccc(OC)c5c4[C@@]2(CCN3C)[C@H]1O5,inhibition,[1],8%
same,inhibition,[2],40%
same,inhibition,Rattus norvegicus [3],Active
same,inhibition,[4],-7%
same,inhibition,[5],0%
same,inhibition,Rattus norvegicus [7],inactive
same,inhibition,[8],12%
same,inhibition,[9],13%
COc1ccc2c3c1O[C@H]1[C@@H](OC(C)=O)C=C[C@H]4[C@@H](C2)N(C)CC[C@@]341,Km,Rattus norvegicus [10],0.56 µM
same,Vmax,Rattus norvegicus [10],7.92 nmol/min/mg
same,microsomal CLint at 50 µM,[11],5.97 µL/min/mg
same,inhibition,Hepatocyte [12],Active
same,Km,Rattus norvegicus [13],0.69 µM
same,Vmax,Rattus norvegicus [13],4.01 nmol/min/mg
same,inhibition,[1],25%
same,Km,Rattus norvegicus [14],0.41 µM
same,Vmax,Rattus norvegicus [14],10.1 nmol/min/mg
same,inhibition,[2],66%
same,microsomal CLint at 5 µM,[15],25 µL/min/mg
same,microsomal CLint at 1 µM,[16],37.8 µL/min/mg
same,inhibition,[4],18%
same,inhibition,[5],19%
same,inhibition,Rattus norvegicus [7],inactive
same,inhibition,Rattus norvegicus [23],inactive
same,inhibition,[8],43%
same,Km,Rattus norvegicus [17],0.35 µM
same,Vmax,Rattus norvegicus [17],3.31 nmol/min/mg
same,microsomal CLint at 2.5 µM,[18],24.7 µL/min/mg
same,inhibition,Rattus norvegicus [19],Dose-dependent effect
same,IC50,[20],3.25 µM
same,Ki,[20],5.17 µM
same,Km,Rattus norvegicus [21],0.26 µM
same,Vmax,Rattus norvegicus [21],9.74 nmol/min/mg
same,inhibition,[9],60%
same,microsomal CLint at 10 µM,[22],9.38 µL/min/mg
